# Measured values as given in patent US20070292386A9, “Vaccine formulations for intradermal delivery comprising adjuvants and antigenic agents” (priority 2004, published 2007).
# Ends that are not written are not given here.
# B1: IL-7: cytokine interleukin-7 (protein, UniProt P13232 26-177, looked up)
# Interleukin-7: DCDIEGKDGKQYESVLMVSIDQLLDSMKEIGSNCLNNEFNFFKRHICDANKEGMFLFRAARKLRQFLKMNSTGDFDLHLLKVSEGTTILLNCTGQVKGRKPAALGEAQPTKSLEENKSLKEQKKLNDLCFLKRLLQEIKTCWNKILMGTKEH
# B2: IL-12: heterodimeric cytokine interleukin-12 (protein, UniProt P29459 23-219; P29460 23-328, looked up)
# Interleukin-12 subunit alpha: RNLPVATPDPGMFPCLHHSQNLLRAVSNMLQKARQTLEFYPCTSEEIDHEDITKDKTSTVEACLPLELTKNESCLNSRETSFITNGSCLASRKTSFMMALCLSSIYEDLKMYQVEFKTMNAKLLMDPKRQIFLDQNMLAVIDELMQALNFNSETVPQKSSLEEPDFYKTKIKLCILLHAFRIRAVTIDRVMSYLNAS
# Interleukin-12 subunit beta: IWELKKDVYVVELDWYPDAPGEMVVLTCDTPEEDGITWTLDQSSEVLGSGKTLTIQVKEFGDAGQYTCHKGGEVLSHSLLLLHKKEDGIWSTDILKDQKEPKNKTFLRCEAKNYSGRFTCWWLTTISTDLTFSVKSSRGSSDPQGVTCGAATLSAERVRGDNKEYEYSVECQEDSACPAAEESLPIEVMVDAVHKLKYENYTSSFFIRDIIKPDPPKNLQLKPLKNSRQVEVSWEYPDTWSTPHSYFSLTFCVQVQGKSKREKKDRVFTDKTSATVICRKNASISVRAQDRYYSSSWSEWASVPCS
# System: influenza antigen (Influenza APR834)
# Type: in vivo
# Parameters: key: greater immune response (as indicated by X) as compared to the inoculums that contained Fluzone alone, or the non-immune inoculums
# Details: adjuvant with Fluzone, intradermal, Balb/c mice, one immunization, sera 21 days, vs Fluzone alone
row,Molecule,"Increased Immune Response, Fluzone"
1,IL-6: cytokine interleukin 6,X
2,"Interferon-gamma: cytokine, interferon produced by lymphocytes",X
3,N-formyl-NIe Leu-Phe-NIe-Tyr-Lys [Neutrophil Chemo-attractant Peptide],X
4,Tyr-Leu-Glu-Pro-Gly-Pro-Val-Thr-Ala [Melanonin Peptide 946],X
5,"VGVAPG [Elastin Repeating Peptide, mammalian peptide adjuvant]",X
6,B1,X
7,B2,X
